Source: patent US7915383B2, “Method of separating a peptidoglycan recognition protein from a hemolymph Tenebrio molitor larvae” (Yuhan Corporation, priority 2006, dated 2011)

Experiments:
[1] = tested on: natural PGN-dependent PO activity in the hemolymph of Tenebrio molitor larvae; assay: Inhibition of natural PGN-dependent PO activity by synthetic PGN; assay type: biochemical
Procedure: (§1) PO activity was assayed according to a Pye-spectrophotometric method using a substrate solution (4-methylcatechol, and 4-hydroxyproline ethylester in HCl). 4-methylcatechol was oxidized to quinone by PO, which was then converted through a non-enzymatic reaction with 4-hydroxyproline ethylester in HCl to 4-(4′-hydroxyl-2′-carbethoxy-1′-pyrroline)-5-methyl-o-benzoquinone, a stable compound having maximum absorbance at 520 nm (see FIG. 2)
Each of 10 μl (1 μg) of a 10% β-1,3-glucan solution, 10 μl. (1 μg) of a 10% S. aureus PGN solution, 10 μl (10 ng) of a 10% M. luteus PGN solution, and 10 μl (1 μg) of a 10% synthetic PGN (for each of the compounds of Formulae 1-4) solution was incubated together with 30 μl (protein 350 μg) of the hemolymph of Tenebrio molitor larvae at 30° C. for 5 minutes. Then, 4 μl of 4-methylcatechol (250 mM), 16 μl of 4-hydroxyproline ethylester (62.5 mM) in HCl, and 5 μl of 1M CaCl2 (10 mM) were added thereto. […] The reaction mixture was incubated at 30° C. and the absorbance of the reaction solution was measured at 520 nm (see FIG. 3).
Meanwhile, PO activity was also measured in the presence of 1 μg of S. aureus PGN and 1 μg of each of the synthetic PGNs.
Furthermore, PO activity was also measured in the presence of 1 μg of S. aureus PGN with an incremental addition of the synthetic PGN of Formula 3 (0.2, 0.4, 0.8, and 1.5 μg).

[2] = tested on: amidase activity; assay: Amidase activity assay with Boc-Phe-Ser-Arg-MCA substrate; assay type: biochemical, Tenebrio molitor; conditions: S. aureus PGN 1 μg plus synthetic PGN, 40 μM Boc-Phe-Ser-Arg-MCA, 30° C., fluorescence 380/460 nm; FIG. 6
Procedure: 10 μl of a 10% gram-positive S. aureus PGN (final concentration: 1 μg) solution and 10 μl of a 10% synthetic PGN (the compound 35 of Formula 3) solution were incubated in the presence of 40 μM trypsin MCA (t-butyloxycarbonyl-benzyl-L-phenylalanyl-L-seryl-L-arginine-4-methylcoumaryl-7-amide; Boc-Phe-Ser-Arg-MCA) as a substrate at 30° C., and fluorescence was measured at 380 nm (excitation wavelength) and 460 nm (emission wavelength) using a fluorescence spectrophotometer (model UV-160A, Shimadzu).

[3] = tested on: PGN-dependent pro-PO cascade in the hemolymph of Tenebrio molitor larvae; assay: PO activity assay (Pye-spectrophotometric method): effect of natural or synthetic PGN on PO activation; assay type: biochemical; conditions: 30 μl hemolymph (protein 350 μg), 1 μg test substance (10 ng M. luteus PGN), 30° C.; FIG. 3
Procedure: as §1
Each of 10 μl (1 μg) of a 10% β-1,3-glucan solution, 10 μl. (1 μg) of a 10% S. aureus PGN solution, 10 μl (10 ng) of a 10% M. luteus PGN solution, and 10 μl (1 μg) of a 10% synthetic PGN (for each of the compounds of Formulae 1-4) solution was incubated together with 30 μl (protein 350 μg) of the hemolymph of Tenebrio molitor larvae at 30° C. for 5 minutes. Then, 4 μl of 4-methylcatechol (250 mM), 16 μl of 4-hydroxyproline ethylester (62.5 mM) in HCl, and 5 μl of 1M CaCl2 (10 mM) were added thereto. Then, 20 mM Tris-HCl (pH 8.0) was added to a final volume of 500 μl. The reaction mixture was incubated at 30° C. and the absorbance of the reaction solution was measured at 520 nm (see FIG. 3).

Substance	inhibition of PO activity with incremental addition of synthetic PGN ([1]; 1 μg of S. aureus PGN plus 0.2, 0.4, 0.8 and 1.5 μg synthetic PGN, FIG. 5)	inhibition of PGN-dependent PO activity ([1]; in the presence of 1 μg of S. aureus PGN and 1 μg of each synthetic PGN, FIG. 4)	inhibition of amidase activity [2]	activation of the PGN-dependent pro-PO cascade (PO activity, absorbance at 520 nm) [3]
Tetrasaccharide Tetrapeptide [compound 35]	inhibited in a synthetic PGN concentration-dependent manner	strongest competitive inhibitor	same inhibition pattern as the PO activity	
β-1,3-glucan				activated
